Two compounds from article PMC12257413, “Discovery of a Novel sp^3‑Rich M1 Positive Allosteric Modulators (PAMs) Chemotype via Scaffold Hopping” (ACS Medicinal Chemistry Letters, 2025) can be followed below.

Values after ≈ are worked out from the molar mass of the structure shown. Like-named read-outs stand apart in the source and are kept apart here.

Series [1] in a line: Brain homogenate binding by equilibrium dialysis. Type of series: in vitro ADME. Conditions: fraction unbound in rat brain homogenate. Here is the method:
A similar approach was used to determine the degree of brain homogenate binding, which employed the same methodology and procedure with the following modifications: 1) a final compound concentration of 1 μM was used, 2) naïve rat brains were homogenized in DPBS (1:3 composition of brain: DPBS, w/w) using a Mini-Bead Beater™ machine in order to obtain brain homogenate, which was then treated in the same manner as the plasma samples in the previously described plasma protein binding assay. […]
same manner as the plasma samples in the previously described plasma protein binding assay. Fraction unbound for both plasma and brain samples was determined using Equation 4.
Equation 4 Determination of fraction unbound in plasma.
The diluted fraction unbound (fu2) in brain was calculated in the same manner by using brain homogenate rather than plasma. Undiluted fraction unbound for the brain was calculated using Equation 5 […]
Equation 5 Determination of fraction unbound in brain. […]
Human or rat hepatic microsomes (0.5 mg/mL) and 1 µM test compound were incubated in 100 mM potassium phosphate pH 7.4 buffer with 3 mM MgCl 2 at 37 °C with constant shaking. […] The in vitro half-life (1/2, min, Eq. 1), intrinsic clearance (CL int, mL/min/kg, Eq. 2), and subsequent predicted hepatic clearance (CLhep, mL/min/kg, Eq. 3) was determined employing the following equations: […]
In general terms: In equilibrium dialysis only unbound substance equilibrates across the membrane.

Another series is described as follows: ElogD 7.4. The format is physicochemical. Conditions: pH 7.4. The text has this: 4 Detailed In Vitro and In Vivo Profiles for Selected M1 PAMs ^a | column: 17k; 17g
A short description of a further series: Aqueous solubility. The format is physicochemical. Conditions: aqueous solution, aqueous buffer.
A short description of series [2]: Brain to plasma ratio (PK/PBL cassette). Type of series: in vivo. Conditions: rat. The method, then: In vivo DMPK experimental:
Determination of brain to plasma ratio:
Sample Analysis: Concentrations in plasma and brain homogenates were quantified by liquid chromatography tandem mass spectrometry (LC-MS/MS). Whole brains were homogenized in 3 mL of 70:30 IPA:water in a mini bead beater for 3 min, and centrifuged at 3,500 g for 5 min. 5 uL of the supernatant was diluted in 15 uL of blank plasma for quantification of the analytes. Plasma samples were centrifuged at 3,500 g for 5 min. A standard curve was generated by diluting the analytes DMSO stocks with blank plasma to obtain a final concentration of 10,000 ng/ml followed by a serial dilution down to 0.5 ng/ml. […]
Plasma and brain tissue samples originating from in vivo studies were analyzed by electrospray ionization using an AB Sciex Q-TRAP 5500 (Foster City, CA) that was coupled to a Shimadzu LC-20AD pump (Columbia, MD) and a Leap Technologies CTC PAL auto-sampler (Carrboro, NC). […]
transitioning to 10% B over 0.05 min. […] All data were analyzed using AB Sciex Analyst 1.5.1 software.
Brain plasma concentration ratio (Kp) was calculated by dividing brain concentration by plasma concentration for each animal. Unbound brain to unbound plasma concentration ratio (Kp,uu) is calculated using the following formula: Kp,uu = (Brain ng/g x brain fu)/(plasma ng/ml x plasma fu).

[3] abbreviates: pH 2.2, read-out: Solubility pH = 2.2.
[4] abbreviates: pH 6.8, read-out: Solubility pH = 6.8.

Broadly, the chromatographic logD is a lipophilicity value derived from retention on a column. A high value points to higher lipophilicity. In general, solubility refers to how much of the substance goes into solution per volume. The term Kp denotes tissue or fluid exposure divided by exposure in the circulation. Consider `Cn1cc(-c2ccc(Cc3cc(C(=O)N[C@H]4CCOC[C@@H]4O)nn3C3CCCC3)cc2)cn1` [17g], for which the Rat fubrain in series [1] stood at 0.08. This compound displayed a chromatographic logD in the series “ElogD 7.4” of 3.05. The values for the solubility in “Aqueous solubility” (setting [3]) and in the series “Aqueous solubility” (setting [4]) were 84.6 µM (≈ 38 µg/mL) and 80.7 µM (≈ 36.3 µg/mL), respectively. Besides, the Kp in series [2] amounted to 0.12.

As for `Cn1cc(-c2ccc(Cc3cc(C(=O)N[C@H]4CCCC[C@@H]4O)nn3C3CCCC3)cc2)cn1` [17k], in series [1], the Rat fubrain is recorded as 0.01. In the series “ElogD 7.4”, this compound returned a chromatographic logD of 4.15. In addition, the solubility in the series “Aqueous solubility” (setting [3]) was 10.8 µM (≈ 4.83 µg/mL); in “Aqueous solubility” (setting [4]), below 1.12 µM. In series [2], the Kp worked out at 0.63.
